The values that follow come from US7414047B2, “Piperazinyl and diazapanyl benzamides and benzthioamides” (Janssen Pharmaceutica N.V., priority 2002, dated 2008).

Counter-ions that a name gives are not always drawn.

T1 sequence (Q9Y5N1 whole entry): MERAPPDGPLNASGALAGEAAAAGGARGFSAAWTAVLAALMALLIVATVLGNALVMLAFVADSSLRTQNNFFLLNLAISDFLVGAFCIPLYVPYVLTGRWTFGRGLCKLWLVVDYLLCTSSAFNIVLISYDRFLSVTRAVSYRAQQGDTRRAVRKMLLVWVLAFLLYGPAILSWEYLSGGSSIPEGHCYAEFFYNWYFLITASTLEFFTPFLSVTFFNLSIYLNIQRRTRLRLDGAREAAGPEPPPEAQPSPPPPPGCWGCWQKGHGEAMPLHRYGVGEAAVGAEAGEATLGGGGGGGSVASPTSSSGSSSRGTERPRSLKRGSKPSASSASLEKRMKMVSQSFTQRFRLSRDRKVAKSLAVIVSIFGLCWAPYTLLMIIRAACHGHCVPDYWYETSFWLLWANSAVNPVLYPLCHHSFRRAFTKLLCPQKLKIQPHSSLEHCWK

The experiment concerns the target T1, human histamine H3 receptor (Homo sapiens, UniProt Q9Y5N1).
T1 construct: One microgram of supercoiled H3 receptor cDNA was added to the cells and mixed; expressed in transfected cells; membranes prepared from cell pellets
Put plainly: {3H}-N-methylhistamine binding. The method, then: Transfection of Cells with Human Histamine Receptor
A 10 cm tissue culture dish with a confluent monolayer of SK-N-MC cells was split two days prior to transfection. Using sterile technique the media was removed and the cells were detached from the dish by the addition of trypsin. One fifth of the cells were then placed onto a new 10 cm dish. Cells were grown in a 37° C. incubator with 5% CO2 in Minimal Essential Media Eagle with 10%. Fetal Bovine Serum. After two days cells were approximately 80% confluent. These were removed from the dish with trypsin and pelleted in a clinical centrifuge. The pellet was then re-suspended in 400 μL complete media and transferred to an electroporation cuvette with a 0.4 cm gap between the electrodes. One microgram of supercoiled H3 receptor cDNA was added to the cells and mixed. The voltage for the electroporation was set at 0.25 kV, the capacitance was set at 960 μF. After electroporation the cells were diluted into 10 mL complete media and plated onto four 10 cm dishes. Because of the variability in the efficiency of electroporation, four different concentrations of cells were plated. The ratios used were; 1:20, 1:10, 1:5, with the remainder of the cells being added to the fourth dish. […] After 10 days dishes were analyzed for surviving colonies of cells. Dishes with well-isolated colonies were used. Cells from individual colonies were isolated and tested. SK-N-MC cells were used because they give efficient coupling for inhibition of adenylate cyclase. The clones that gave the most robust inhibition of adenylate cyclase in response to histamine were used for further study.
{^3H}-N-methylhistamine Binding
Cell pellets from histamine H3 receptor-expressing SK-N-MC cells were homogenized in 20 mM TrisHCl/0.5 mM EDTA. Supernatants from an 800 g spin were collected, recentrifuged at 30,000 g for 30 min. Pellets were re-homogenized in 50 mM Tris/5 mM EDTA (pH 7.4). […] Filters were dried, added to 4 mL scintillation cocktail and then counted on a liquid scintillation counter. Non-specific binding was defined with 10 μM histamine.
Usually Ki stands for the dissociation constant of the complex between target and ligand, obtained from inhibition or displacement. Low values mean a stronger hold on the target, high ones a looser hold on the target. With `CC(C)N1CCN(C(=O)c2ccc(CN3CCCC(C(F)(F)F)C3)cc2)CC1` (centres unmarked) [Example 56, (4-Isopropyl-piperazin-1-yl)-{4-(3-trifluoromethyl-piperidin-1-ylmethyl)-phenyl}-methanone dihydrochloride], the affinity corresponds to a Ki of 1 nM. This lies in the single-digit nanomolar range.
As for `CCN(CC)Cc1ccc(C(=O)N2CCN(C(C)C)CC2)cc1` [Example 57, (4-Diethylaminomethyl-phenyl)-(4-isopropyl-piperazin-1-yl)-methanone dihydrochloride], the affinity corresponds to a Ki of 6 nM.
As for `CC(C)N1CCN(C(=O)c2ccc(CNCc3ccccc3)cc2)CC1` [Example 58, {4-(Benzylamino-methyl)-phenyl}-(4-isopropyl-piperazin-1-yl)-methanone dihydrochloride], the Ki was determined as 3 nM.
As to `CC(C)N1CCN(C(=O)c2ccc(CNc3ccccc3)cc2)CC1` [Example 59, (4-Isopropyl-piperazin-1-yl)-(4-phenylaminomethyl-phenyl)-methanone dihydrochloride], the affinity corresponds to a Ki of 23 nM.
In the case of `CC(C)N1CCN(C(=O)c2ccc(CN3CCCCCC3)cc2)CC1` [Example 60, (4-Azepan-1-ylmethyl-phenyl)-(4-isopropyl-piperazin-1-yl)-methanone dihydrochloride], the affinity corresponds to a Ki of 1 nM.
For the compound `CC(C)N1CCN(C(=O)c2ccc(CN3CCCC3)cc2)CC1` [Example 61, (4-Isopropyl-piperazin-1-yl)-(4-pyrrolidin-1-ylmethyl-phenyl)-methanone dihydrochloride], the inhibition constant (Ki) was 1 nM.
As for `CC(C)N1CCN(C(=O)c2ccc(CN(C)C)cc2)CC1` [Example 62, (4-Dimethylaminomethyl-phenyl)-(4-isopropyl-piperazin-1-yl)-methanone dihydrochloride], the affinity corresponds to a Ki of 5 nM.
Take `O=C(c1ccc(CN2CCCCC2)cc1)N1CCN(C2CCCCC2)CC1` [Example 66, (4-Cyclohexyl-piperazin-1-yl)-(4-piperidin-1-ylmethyl-phenyl)-methanone]: the affinity corresponds to a Ki of 1 nM.
For the compound `CC(C)N1CCN(C(=O)c2ccc(CN3CCSCC3)cc2)CC1` [Example 67, (4-Isopropyl-piperazin-1-yl)-(4-thiomorpholin-4-ylmethyl-phenyl)-methanone], the affinity, expressed as Ki, was 2 nM.
To `CCCN(CCOC)Cc1ccc(C(=O)N2CCN(C(C)C)CC2)cc1` [Example 68, (4-Isopropyl-piperazin-1-yl)-(4-{[(2-methoxy-ethyl)-propyl-amino]-methyl}-phenyl)-methanone] belongs 2 nM; to `CCN(CCOC)Cc1ccc(C(=O)N2CCN(C(C)C)CC2)cc1` [Example 69, (4-{[Ethyl-(2-methoxy-ethyl)-amino]-methyl}-phenyl)-(4-isopropyl-piperazin-1-yl)-methanone], 3 nM.
Regarding `COCCNCc1ccc(C(=O)N2CCN(C(C)C)CC2)cc1` [Example 70, (4-Isopropyl-piperazin-1-yl)-{4-[(2-methoxy-ethylamino)-methyl]-phenyl}-methanone], the affinity, expressed as Ki, was 2 nM.
Turning to `CC(C)N1CCN(C(=O)c2ccc(CNc3ccccn3)cc2)CC1` [Example 71, (4-Isopropyl-piperazin-1-yl)-[4-(pyridin-2-ylaminomethyl)-phenyl]-methanone], the inhibition constant Ki was determined as 4 nM. Compared with the last compound, the Ki is about 2-fold higher.
In the case of `COCC(C)NCc1ccc(C(=O)N2CCN(C(C)C)CC2)cc1` (centres unmarked) [Example 72, (4-Isopropyl-piperazin-1-yl)-{4-[(2-methoxy-1-methyl-ethylamino)-methyl]-phenyl}-methanone], the affinity, expressed as Ki, was 3 nM.
